Strand notation (5' to 3'): a small letter for the sugar, then the base; units joined by * are phosphorothioate-linked, units joined directly phosphodiester-linked; [ ] holds rarer units or linkages, { } end groups; capitals alone tell only the bases. [PALM-N] = nucleoside bearing a 2'-(butylacetamido)-palmitamide (C16 palmitic acid) substituent (N: the base); e = 2'-O-(2-methoxyethyl) (MOE); l = locked nucleic acid (LNA); [5mC] = 5-methylcytosine; d = 2'-deoxy (DNA)
Columns and labels:
[1] = target: T1, human SGLT2 (Homo sapiens, UniProt P31639); conditions: cited from earlier work
T1 construct: host or cells: Xenopus oocytes (heterologous expression after injection)
T1 sequence (P31639 1-672): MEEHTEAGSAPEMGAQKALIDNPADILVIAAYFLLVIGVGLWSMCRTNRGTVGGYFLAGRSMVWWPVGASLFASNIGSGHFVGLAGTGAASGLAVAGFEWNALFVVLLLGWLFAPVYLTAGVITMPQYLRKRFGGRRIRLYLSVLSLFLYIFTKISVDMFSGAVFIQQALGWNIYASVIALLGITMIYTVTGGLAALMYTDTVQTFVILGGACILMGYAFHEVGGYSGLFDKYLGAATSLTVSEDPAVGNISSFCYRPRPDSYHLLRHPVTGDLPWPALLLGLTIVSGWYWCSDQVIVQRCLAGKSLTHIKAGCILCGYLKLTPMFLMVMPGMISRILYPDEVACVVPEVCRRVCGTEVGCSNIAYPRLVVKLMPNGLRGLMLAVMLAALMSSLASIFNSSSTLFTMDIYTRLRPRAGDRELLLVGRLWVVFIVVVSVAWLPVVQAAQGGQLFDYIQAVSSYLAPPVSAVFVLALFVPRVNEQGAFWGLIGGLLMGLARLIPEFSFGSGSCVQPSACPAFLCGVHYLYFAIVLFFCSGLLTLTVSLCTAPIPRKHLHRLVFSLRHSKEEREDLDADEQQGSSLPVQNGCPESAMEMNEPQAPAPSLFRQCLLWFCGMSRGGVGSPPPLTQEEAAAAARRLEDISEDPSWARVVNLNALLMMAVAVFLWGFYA

[2] = tested on: rat SGLT2 mRNA; experiment: Rat SGLT2 mRNA levels in kidney, 1-10-1 gapmers at 250 nmol/kg, Sprague-Dawley rats (Example 14, Table 66); type: in vivo; conditions: 250 nmol/kg i.p. twice per week for three weeks; Sprague-Dawley rats; kidney
Experimental: The effect of the above 1-10-1gapmers (see Table 64 above) on rat SGLT2 mRNA levels. Data are taken from four experiments in which male Sprague-Dawley rats (170-200 g) were dosed twice per week for three weeks with 250 nmol/kg given by intraperitoneal injection. Rats were sacrificed 48 hours following last administration and evaluated for SGLT2 mRNA levels in kidney. Target levels were determined by RT, real-time PCR as described by other examples herein. PCR results were normalized to an internal ISIS control.

[3] = tested on: SGLT-2 mRNA; experiment: SGLT-2 mRNA levels in kidney of ZDF rats, parent versus 12 nucleobase compound (Example 10); type: in vivo, rat
Experimental: In a next study, ZDF rats were dosed intraperitoneally twice per week with 1.5 mg/kg of either ISIS 257016 or ISIS 370717, or with saline at a similar dosing schedule. ISIS 370717 is a 12 nucleobase antisense compound targeted to SGLT-2 nucleic acid comprising the sequence […] […] All cytidine residues are 5-methylcytidines.
The date support that ISIS 257016 is a prodrug having a 12 nucleotide pharmacophore.

[4] = tested on: mouse SGLT2 mRNA; experiment: Mouse SGLT2 mRNA levels in kidney, 1-10-1 MOE gapmers, Balb/c mice (Example 14, Table 65); type: in vivo
Experimental: The short antisense compounds were analyzed for their effect on mouse SGLT2 mRNA levels. Data was taken from three experiments in which Male 6-week old Balb/c mice were dosed twice per week for two weeks with 450, 150, or 50 nmol/kg of one of the above 1-10-1 MOE gapmers given by intraperitoneal injection. Mice were sacrificed 48 hours following last administration and evaluated for SGLT2 mRNA levels in kidney. Target levels were determined by RT, real-time PCR as described by other examples herein. PCR results were normalized to an internal ISIS control.

[5] = tested on: mouse SGLT2 mRNA; experiment: Mouse SGLT2 mRNA levels in kidney, wing, gap and length variations (Example 12, Table 61); type: in vivo; conditions: mice
Experimental: ISIS 370717 1-10-1 MOE gapmer was used as a template to make sequence related oligos with varying motifs. The antisense compounds were designed to target different regions of the mouse or rat SGLT2 nucleic acid, using published sequences (GenBank accession number U29881.1, incorporated herein as SEQ ID NO: 1575, and GenBank accession number AJ292928.1, incorporated herein as SEQ ID NO: 1576, respectively).
The antisense compounds were analyzed for their effect on mouse SGLT2 mRNA levels. Data are ranges taken from three experiments in which mice were dosed twice per week for three weeks with 2.5, 0.5 or 0.1 umol/kg of the above MOE gapmers given by intraperitoneal injection. Mice were sacrificed 48 hours following last administration and evaluated for SGLT2 levels in kidney. SGLT2 mRNA levels were determined by RT, real-time PCR as described by other examples herein. PCR results were normalized to an internal ISIS control.

[6] = tested on: rat SGLT2 mRNA; experiment: Rat SGLT2 mRNA levels in kidney, 1-10-1 and 1-10-2 MOE gapmers, Sprague-Dawley rats (Example 13, Table 63); type: in vivo
Source text: 1-10-1 and 1-10-2 MOE gapmer antisense compounds, provided in Table 62, were designed to target different regions of the mouse or rat SGLT2 RNA. All short antisense compounds in Table 62 are chimeric oligonucleotides (“gapmers”) either 12 or 13 nucleotides in length, composed of a central “gap” segment consisting of ten 2′-deoxynucleotides, which are flanked on the 5′ side by a one-nucleoside “wing” and on the 3′ side by a two or one-nucleotide “wing”. […] All cytidine residues are 5-methylcytidines.
The short antisense compounds were analyzed for their effect on rat SGLT2 mRNA levels. Data are ranges taken from three experiments in which Male Sprague-Dawley rats (170-200 g) were dosed twice per week for three weeks with 450, 150 or 50 nmol/kg of either a 1-10-1 or 1-10-2 MOE gapmer given by intraperitoneal injection. Rats were sacrificed 48 hours following last administration and evaluated for SGLT2 mRNA levels in kidney. Target levels were determined by RT, real-time PCR as described by other examples herein. PCR results were normalized to an internal ISIS control.

[7] = tested on: SGLT-2 mRNA; experiment: SGLT-2 mRNA levels in kidney of normal rats after intrajejunal administration (Example 11); type: in vivo, rat; conditions: 100 mg/kg twice per week intrajejunal
[8] = tested on: ApoB mRNA; experiment: ApoB mRNA in liver of Balb/c mice, palmitic acid conjugates, single i.p. dose, with ED50 (Example 30, Table 95); type: in vivo, mouse; conditions: single i.p. injection
Experimental: (§1) 0.4, and 0.16 umol/kg. Each dose group consisted of four animals. A 5-10-5 MOE gapmer was used for a control treatment. Mice were sacrificed approximately 48 hours following the final dose. Liver tissue was collected for RNA isolation, and blood was collected for serum chemistry analyses. ApoB mRNA levels were measured by real-time PCR as described herein. ApoB mRNA levels were normalized to RNA levels as determined by RIBOGREEN, and are presented in Table 95 as percent inhibition relative to ApoB mRNA levels in saline-treated control animals.
(§2) At the 2.5 umol/kg dose, ApoB inhibition by the short antisense compounds was greater than observed with a 5-10-5 MOE gapmer at an equivalent dose. […] Triglycerides were reduced at the 2.5 and […] doses of ISIS 387462 and ISIS 391872.

[9] = Triglycerides, total cholesterol, HDL-C, LDL-C and adverse effects (Example 30); type: in vivo, mouse
Experimental: as §1, §2

O=C(CCc1ccc(O)cc1)c1c(O)cc(O)cc1O[C@@H]1O[C@H](CO)[C@@H](O)[C@H](O)[C@H]1O [phlorizin]
transport activity ([1]; You et al., 1995): suppressed

CO[C@H]1O[C@H](CO)[C@@H](O)[C@H](O)[C@H]1O [α-MeG1c, α-methyl-D-glucopyranoside]
Km ([1]; sodium-dependent transport (Kanai et al., 1994; You et al., 1995)): 1.6 mM

ISIS 370717: SGLT2; TAGCCACCAACT 1-10-1 MOE gapmer, phosphorothioate (sugars from the 5' end e1 d10 e1, all phosphorothioate, methylation of C not given here)
% change in SGLT2 expression relative to saline [2]: −70% | pharmacological activity ([3]; ZDF rats, 1.5 mg/kg i.p. twice per week, five weeks): similar | onset of action ([3]; compared with ISIS 257016): faster onset of action | inhibition of SGLT2 expression in kidney ([3]; day two after a single dose of 2.8 umoles/kg): ~80% | % change in SGLT2 expression relative to saline ([4]; 50 nmol/kg i.p. twice per week for two weeks): −47.5% | % change in SGLT2 expression relative to saline ([4]; 150 nmol/kg i.p. twice per week for two weeks): −55% | % change in SGLT2 expression relative to saline ([4]; 450 nmol/kg i.p. twice per week for two weeks): −65% | % change in SGLT2 expression relative to saline ([5]; 0.1 umol/kg i.p. twice per week for three weeks): −55% | % change in SGLT2 expression relative to saline ([5]; 0.5 umol/kg i.p. twice per week for three weeks): −70% | % change in SGLT2 expression relative to saline ([6]; 50 nmol/kg i.p. twice per week for three weeks): −55% | % change in SGLT2 expression relative to saline ([6]; 150 nmol/kg i.p. twice per week for three weeks): −70% | % change in SGLT2 expression relative to saline ([6]; 450 nmol/kg i.p. twice per week for three weeks): −70% | SGLT-2 mRNA reduced over the controls [7]: more than 80%

ISIS 391872: ApoB; GGTACATGGAAGTC 1-1-10-2 2′-(butylacetomido)-palmitamide Methyleneoxy BNA/Methyleneoxy BNA Unmodified cytosines in gap (antisense [PALM-G]*lG*dT*dA*dC*dA*dT*dG*dG*dA*dA*dG*lT*l[5mC])
estimated ED50 [8]: 1.9 mg/kg | LDL-C ([9]; Example 30): fell below the limit of detection | Triglycerides ([9]; at the 2.5 and 1.0 mg/kg doses (so in the source)): reduced | total cholesterol, HDL-C and LDL-C ([9]; dose-dependent manner): markedly reduced
